Experimental data published in patent US20220334127A1, “IN VITRO METHOD FOR OBTAINING CLINICAL DATA IN PATIENTS SUFFERING FROM AN INFLAMMATORY DISEASE” (FUNDACIÓN PARA LA FORMACIÓN E INVESTIGACIÓN SANITARIAS DE …, priority 2019, published 2022).

Experiments:
P2X7 receptor [1] = test: Cecal ligation and puncture (CLP) sepsis model with i.p. ATP before operation; assay type: in vivo, mouse; conditions: wild type mice, ATP pre-treatment (FIG. 6g)
Protocol: FIG. 6. P2X7 receptor stimulation induces an impairment of the NLRP3 inflammasome in monocytes. (a-b) Percentage of monocytes with ASC-specks (a) and release of […] from PBMCs (b) isolated from healthy donor blood samples treated with ATP (3 mM, 30 min; ATP-pre), then washed and primed with or without LPS (1 μg/ml, 2 h) and then treated for 20 min with ATP (3 mM; ATP-post) or nigericin (10 μM) as indicated. (c) IL-1β release from wild type or P2rx7^−/− BMDMs treated as in a, but with 4 h LPS priming and 30 min of ATP or nigericin. […] (e) Expression of Nrlp3 and Illb genes analyzed by quantitative PCR from wild type or P2rx7^−/− BMDMs treated with ATP (3 mM, 30 min; ATP-pre), then washed and primed with or without LPS (100 ng/ml, 4 h). […]
The University of Murcia Animal Research Ethical Committee approved animal procedures (ref 5/2014) and then the Animal Health Service of the General Directorate of Fishing and Farming of the Council of Murcia (Servicio de Sanidad Animal, Dirección General de Ganaderia y Pesca, Consejeria de Agricultura y Agua Región de Murcia) approved animal procedures with ref A1320140201. […] Buprenorphine (0.3 mg/kg) was administered intraperitoneally at the time of surgery and mice were monitored continuously until recovery from anesthesia. […] Then the number of bacterial colonies was counted and expressed as CFU/ml of serum.

HIF-1α = HIF-1α staining in human monocytes by flow cytometry; assay type: cell-based; conditions: ATP 1 mM 30 min, washed, cultured 2 h (FIG. 7e)
Protocol: Human peripheral blood mononuclear cells (PBMCs) were isolated from blood within one hour after extraction using Ficoll histopaque 1077 (Sigma-Aldrich). […] Cells were treated with ATP (Sigma-Aldrich), antimycin A (Sigma-Aldrich) or FCCP (Sigma-Aldrich) in the presence or absence of PDTC (Sigma-Aldrich) or echinomycin (Sigma-Aldrich) in E-total buffer (147 mM NaCl, 10 mM HEPES, 13 mM glucose, 2 mM CaCl2), 1 mM MgCl2, and 2 mM KCl) and then washed and stimulated with E. coli LPS O55:B5 in their respective complete media. […] After LPS treatment, cells were incubated with P2X7 modulating nanobodies, the specific P2X7 receptor antagonist A438079 or AZ11645373 (Tocris), and then subsequently stimulated with ATP or nigericin (Sigma-Aldrich) in E-total buffer. Times and concentrations for the reagents used are specified in the figure legends.
HIF-1α expression was detected in CD14^+ monocytes using Alexa Fluor-647 mouse anti-human HIF-1α (BD Biosciences, Clone 54) at 1:1000 dilution.

P2X7 receptor [2] = test: Electron microscopy of mitochondria after ATP; assay type: cell-based
NLRP3 inflammasome = test: IL-1β release from BMDMs pre-treated, washed, LPS-primed and stimulated with nigericin; assay type: cell-based, mouse; conditions: P2X7-receptor-deficient macrophages (FIG. 6c)
Protocol: FIG. 6. P2X7 receptor stimulation induces an impairment of the NLRP3 inflammasome in monocytes. (a-b) Percentage of monocytes with ASC-specks (a) and release of […] from PBMCs (b) isolated from healthy donor blood samples treated with ATP (3 mM, 30 min; ATP-pre), then washed and primed with or without LPS (1 μg/ml, 2 h) and then treated for 20 min with ATP (3 mM; ATP-post) or nigericin (10 μM) as indicated. (c) IL-1β release from wild type or P2rx7^−/− BMDMs treated as in a, but with 4 h LPS priming and 30 min of ATP or nigericin. (d) IL-1β release from wild type or P2rx7^−/− BMDMs treated for 30 min with antimycin A (5 μM) or FCCP (1 μM) and then washed and primed with LPS (1 μg/ml, 4 h) and then stimulated with nigericin (10 μM, 30 min) as indicated. (e) Expression of Nrlp3 and Illb genes analyzed by quantitative PCR from wild type or P2rx7^−/− BMDMs treated with ATP (3 mM, 30 min; ATP-pre), then washed and primed with or without LPS (100 ng/ml, 4 h). (f) Kaplan-Meier representation of wild type (top) or P2rx7^−/− (bottom) mice survival after sham operation (dotted line), or CLP operation (continuous line); some mice groups were i.p. injected with ATP (0.5 mg/g) 30 min before operation (dashed lines). Wild type CLP n=10, CLP+ATP n=8, sham n=4, sham+ATP n=4; P2rx7^−/− CLP n=4, CLP+ATP n=6, sham n=3. (g) IL-1β from peritoneal lavage (left) or bacterial load in blood (right) from wild type sham, CLP or CLP+ATP mice after 24 h. Each dot represents a single independent experiment (c,d), a sample from an individual healthy donor (a,b,e) or a single mouse (g); average±standard error is represented in panels a-e,g; *p<0.05; **p<0.01; ns, no significant difference (p>0.05); Mann-Whitney test was used for a,b,d,e; Kruskal-Wallis test was used for c; Long-rank test for f.
FIG. 7. Mitochondrial dysfunction mediates P2X7 receptor induced NLRP3 inflammasome impairment. (a) Mitochondrial membrane depolarization in BMDMs treated with ATP (3 mM, 30 min), then washed out and incubated for the indicated times in the absence or presence of LPS (1 μg/ml) as indicated. […] (e) Representative histogram plot of HIF-1α staining (left) or quantification of HIF-1α mean intensity fluorescence increase (ΔMFI, right) in monocytes isolated from healthy donor blood samples and treated or not with ATP (1 mM, 30 min) in the presence or absence of AZ11645373 (10 μM) or PDTC (10 μM), and then washed and cultured for 2 h; non-stained monocytes (light grey, left). […] (g) Expression of HIF1A gene analyzed by quantitative PCR from control surgery group and septic patients PBMCs; septic patients are separated into NLRP3 non-immunocompromised (grey bar) and immunocompromised (black bar). […]

## Nc1ncnc2c1ncn2[C@@H]1O[C@H](COP(=O)(O)OP(=O)(O)OP(=O)(O)O)[C@@H](O)[C@H]1O [ATP, adenosine triphosphate]
P2X7 receptor [1]; 24 h after CLP
  bacterial load in the blood: increased
P2X7 receptor [1]; peritoneal lavage 24 h after CLP
  release of IL-1β into the mouse peritoneum: decreased
HIF-1α
  HIF-1α expression by the agent itself: increased
P2X7 receptor [2]
  damage to the mitochondria (electron microscopy): no damage to the mitochondria
  mitochondrial swelling (electron microscopy): a swelling of the mitochondria
NLRP3 inflammasome
  NLRP3 inflammasome inhibition when ATP applied before LPS priming: did not present NLRP3 inflammasome inhibition
